“Also recorded” adds a separate entry of the source.
Tests used:
[1] = system: S6K1 (Thr389) phosphorylation (mTORC1 activity) in wild-type (WT) 293T cells; assay: Inhibition of S6K1 (Thr389) phosphorylation in wild-type 293T cells (ELISA); format: cell-based, human; conditions: for extent of inhibition of S6K1 (Thr389) phosphorylation: with increasing concentrations
How it was run: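 WT 293T cells in DMEM + 10% FBS, grown 24 h to ~80% confluence, then treated 2 h at 37 °C in duplicate with compounds over an 8–11-point range from 0.001 pM to 10 μM. DMSO vehicle served as negative control. Phospho-S6K1 (Thr389) measured by ELISA.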

[2] = In vitro microsomal metabolic stability, CD-1 mouse liver microsomes; format: in vitro ADME; conditions: for CLint scaled at 1 µM / microsomal CLint at 1 µM: CD-1, mouse, mouse liver microsomes, pH 7.2; for half-life at 1 µM: CD-1, pH 7.2, 0.5 mg/ml protein, NADPH; for half-life at 1 µM / Remaining (T = 60 min) / Remaining (T = NCF60 min): Mouse liver microsomes; for Remaining (T = 60 min): with NADPH; for Remaining (T = NCF60 min): without NADPH regenerating system; for Remaining (T = 60 min) / Remaining (T = NCF60 min): 60 min
How it was run: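 Compounds at 1 μM incubated at 37° C with pooled CD-1 mouse or human liver microsomes (0.5 mg/mL protein) plus NADPH regenerating system in 50 mM potassium phosphate, pH 7.2, 3.3 mM MgCl2; sampled at 0–60 min, 60-min no-NADPH control. Parent loss by LC/MS/MS analyte/IS peak-area ratio, n=1.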

[3] = Pharmacokinetic studies in male CD-1 mice (plasma, IV and PO); format: in vivo, mouse; conditions: for clearance / Vd / bioavailability / half-life / Cmax / concentration at 8 h / concentration at 24 h: male; for clearance / Vd / bioavailability: CD-1, plasma, mouse; for clearance / Vd / half-life: IV 2 mg/kg; for clearance: read-out: CI(mL/min/kg), compounds clearance following IV administration; for Vd: read-out: Vdss (L/kg), volume of distribution following IV administration; for bioavailability: PO 10 mg/kg vs IV 2 mg/kg; for half-life / Cmax / concentration at 8 h / concentration at 24 h: CD-1; for half-life / Cmax / concentration at 8 h / concentration at 24 h / IV plasma half-life (T1/2): mouse plasma; for half-life: read-out: IV T1/2 (converted); for Cmax / concentration at 8 h / concentration at 24 h: PO 10 mg/kg; for concentration at 8 h: read-out: Compound concentration at 8-hour, PO administration; for concentration at 24 h: read-out: Compound concentration at 24-hour, PO administration
Description: Animal experiments were carried out at Wuxi AppTec. Male 6-8 weeks old CDI mice were obtained from Hilltop Labs. Following arrival at Wuxi AppTec, mice were housed in animal rooms with environmental control (temperature: 20 to 26° C.; lighting: 12 hour light/dark cycle). Mice were fed with certified pellet diet (Certified Rodent Diet #5002 by LabDiet). Water was provided to the animals ad libitum. Mice were acclimated to the facility for at least 3 days prior to starting experiments.
Appropriate amount of test article formulated in 5% ethanol, 5% Tween-80 and 5% PEG-400, 85% water. Formulation was prepared on the day of dosing and dosed within 2 hours following preparation of formulations. Dose accuracy was determined by LC-MS/MS.
Dose formulation(s) were administered following facility SOPs. Dose volumes were determined individually prior to dosing based on animals' body weights.
About 40 μL of blood samples were collected via peripheral veins (e.g. saphenous veins) at each pre-defined time point. Blood samples were collected into tubes containing K2EDTA as anti-coagulant and kept on ice until centrifugation.
Blood samples were centrifuged at 4° C., 3000 g for 5 min within half an hour of collection. Plasma was transferred into polypropylene tubes or 96-well plates, promptly frozen on dry ice and stored at −70±10° C. until analysis by LC-MS/MS.
Test compound concentration in mouse plasma was determined with LC-MS/MS method using a calibration curve with at least 6 non-zero calibration standards.
The pharmacokinetics (PK) of the test article was analyzed using Phoenix WinNonlin software (version 8.3) and non-compartmental analysis model. Derived PK parameters include, but not limited to, C0, CLp, Vdss, Cmax, Tmax, T1/2, AUC(0-t), AUC(0-inf), MRT(0-t), MRT(0-inf) and % F (bioavailability).

CLint scaled at 1 µM [2] [mL/min/kg] | microsomal CLint at 1 µM [2] [µL/min/mg] | half-life at 1 µM [2] [h] | Remaining (T = 60 min) [2] [%] | Remaining (T = NCF60 min) [2] [%] | clearance [3] [mL/min/kg] | Vd [3] [L/kg] | bioavailability [3] [%] | half-life [3] [h] | Cmax [3] [ng/mL] | concentration at 8 h [3] [ng/mL] | concentration at 24 h [3] [ng/mL] | IV plasma half-life (T1/2) [3] [h] | Compound | IC50 ([1]; Homo sapiens, HEK-293T, 2 h, wild-type 293T cells, 2 hours treatment) [nM] | fold lower potency compared with RAD001 (by IC50) ([1]; wild-type cells) [fold] | extent of inhibition of S6K1 (Thr389) phosphorylation ([1]; wild-type cells)
11.1 | 2.81 | 8.2 | 113 | 99.6 | 0.176 | 0.228 | 30.7 | 15.5 | 12900 | 10000 | 4670 | 15.5 | COCCN(c1ccccc1)C1C[C@@H]2CC[C@@H](C)[C@@](O)(O2)C(=O)C(=O)N2CCCC[C@H]2C(=O)OC([C@H](C)CC2CC[C@@H](O)C(OC)C2)CC[C@H](C)/C=C(\C)C(O)C(OC)C(=O)[C@H](C)C[C@H](C)/C=C/C=C/C=C/1C (stereo partly drawn) [Compound 69, (3S,6S,7E,9R,10R,12R,14S,15E,17E,19E,23S,26R,27R,34aS)-9,27-dihydroxy-3-((R)-1-((1S,3R,4R)-4-hydroxy-3-methoxycyclohexyl)propan-2-yl)-10-methoxy-21-((2-methoxyethyl)(phenyl)amino)-6,8,12,14,20,26-hexamethyl-5,6,9,10,12,13,14,21,22,23,24,25,26,27,32,33,34,34a-octadecahydro-3H-23,27-epoxypyrido[2,1-c][1]oxa[4]azacyclohentriacontine-1,11,28,29(4H,31H)-tetraone] | 1.53 | 4 | near complete inhibition
76.9 | 19.4 | 1.19 | 56 | 126 | 0.934 | 0.433 | 26 | 5.85 | 7220 | 1960 | 273 | 5.85 | CO[C@H]1C[C@@H]2CC[C@@H](C)[C@@](O)(O2)C(=O)C(=O)N2CCCC[C@H]2C(=O)O[C@H]([C@H](C)C[C@@H]2CC[C@@H](OCCO)[C@H](OC)C2)CC(=O)[C@H](C)/C=C(\C)[C@@H](O)[C@@H](OC)C(=O)[C@H](C)C[C@H](C)/C=C/C=C/C=C/1C [RAD001, everolimus, reference compound] |  |  | completely inhibit; also recorded: near complete inhibition

— patent US20240360153A1 (Regeneron Pharmaceuticals, Inc., priority 2023, published 2024)
